Drawing on patent US20040248765A1, “Tumour targeting prodrugs activated by metallo matrixproteinases” (priority 2001, published 2004), this text covers melting point and IC50 for 30 compounds.

Where a name gives a salt, the structure may show the parent alone. Read-outs that look alike come from different tables or passages of the source. Where a SMILES comes first, the peptide text is derived from it. [ ]: non-standard residue; d: D form. The star is where a group is joined. NH(CH2)3NH(1-anthraquinonyl) = O=C1c2ccccc2C(=O)c2c(NCCCN*)cccc21; Nle = CCCC[C@H](N)C(=O)O; Nva = CCC[C@H](N)C(=O)O

Series [1] has as its system MAC15A adenocarcinoma of the colon. Kind of series: In vitro cytotoxicity against MAC15A adenocarcinoma of the colon, 96 hours exposure. It counts as cell-based.
[2] abbreviates: Mus musculus, exposure time 96 hours, read-out: IC50.
The mark [3] stands for this setting: exposure time 96 hours, read-out: IC50.

What is called melting point is the temperature of the solid-liquid transition. The IC50 is the concentration that inhibits the measured activity by half. Turning to `CC(C)C[C@H](NC(=O)[C@H](C)NC(=O)[C@H](C)NC(=O)[C@@H](C)N)C(=O)NCC(=O)N[C@@H](CC(C)C)C(=O)N1CCC[C@@H]1C(=O)NCCCNc1cccc2c1C(=O)c1ccccc1C2=O.O=C(O)C(F)(F)F` [Example 15, 1-[3-(D-Alanyl-L-alanyl-L-alanyl-L-leucyl-glycyl-L-leucyl-D-prolylamino)propylamino]anthraquinone trifluoroacetate] (H-[dA]AALGL[dP]-{NH(CH2)3NH(1-anthraquinonyl)}), the melting point was 166 °C. This compound also came in with an IC50 in series [1] (Mus musculus, 96 h) of 40 µM.
Compound `NCC(=O)N[C@@H](Cc1ccccc1)C(=O)N1CCC[C@H]1C(=O)NCCCNc1cccc2c1C(=O)c1ccccc1C2=O.O=C(O)C(F)(F)F` [Example 73, 1-[3-(Glycyl-L-phenylalanyl-L-prolylamino)propylamino]anthraquinone trifluoroacetate] came in with a melting point of 129 °C. 2.5 µM corresponded to half-maximal inhibition in series [1] (Mus musculus, 96 h) (IC50).
Consider `CC(C)C[C@H](NC(=O)CNC(=O)[C@@H](N)CC(C)C)C(=O)N1CCC[C@@H]1C(=O)NCCCNc1cccc2c1C(=O)c1ccccc1C2=O` [Example 12, 1-[3-(L-Leucyl-glycyl-L-leucyl-D-prolylamino)propylamino]-anthraquinone trifluoroacetate] (H-LGL[dP]-{NH(CH2)3NH(1-anthraquinonyl)}), for which half-maximal inhibition in series [1] (Mus musculus, 96 h) (IC50) required 30 µM.
As for `CC[C@H](C)[C@H](N)C(=O)NCC(=O)N[C@@H](Cc1ccccc1)C(=O)N1CCC[C@H]1C(=O)NCCCNc1cccc2c1C(=O)c1ccccc1C2=O.O=C(O)C(F)(F)F` [Example 74, 1-[3-(L-Isoleucyl-glycyl-L-phenylalanyl-L-prolylamino)propylamino]-anthraquinone trifluoroacetate], the melting point lay in the range of 122 to 124 °C. In addition, the IC50 in series [1] (setting [2]) stood at 2.5 µM.
The matching figures for `CCC[C@H](NC(=O)[C@@H](N)CCC)C(=O)NCC(=O)N[C@@H](CC(C)C)C(=O)N1CCC[C@H]1C(=O)NCCCNc1cccc2c1C(=O)c1ccccc1C2=O.O=C(O)C(F)(F)F` [Example 45, 1-[3-(L-Norvalyl-L-norvalyl-glycyl-L-leucyl-L-prolylamino)propyl-amino]anthraquinone trifluoroacetate] (H-[Nva][Nva]GLP-{NH(CH2)3NH(1-anthraquinonyl)}): 174 to 176 °C and 4 µM.
As to `CCC[C@H](NC(=O)[C@H](C)NC(=O)[C@@H](C)N)C(=O)N[C@@H](CCC)C(=O)NCC(=O)N[C@@H](CC(C)C)C(=O)N1CCC[C@H]1C(=O)NCCCNc1cccc2c1C(=O)c1ccccc1C2=O` [Example 47, 1-[3-(D-AlanyI-L-alanyl-L-norvalyl-L-norvalyl-glycyl-L-leucyl-L-prolylamino)propylamino]anthraquinone trifluoroacetate] (H-[dA]A[Nva][Nva]GLP-{NH(CH2)3NH(1-anthraquinonyl)}), in series [1] (setting [3]), the IC50 was 22 µM.
Compound `CC(C)C[C@H](NC(=O)CN)C(=O)N1CCC[C@@H]1C(=O)NCCCNc1cccc2c1C(=O)c1ccccc1C2=O` [Example 11, 1-[3-(Glycyl-L-leucyl-D-prolylamino)propylamino]anthraquinone trifluoroacetate] came in with an IC50 in series [1] (Mus musculus, 96 h) of 22 µM.
Turning to `N[C@@H](Cc1ccccc1)C(=O)N1CCC[C@H]1C(=O)NCCCNc1cccc2c1C(=O)c1ccccc1C2=O.O=C(O)C(F)(F)F` [Example 72, 1-[3-(L-Phenylalanyl-L-prolylamino)propylamino]anthraquinone trifluoroacetate], the melting point lay within 118 to 120 °C. Also, in series [1] (Mus musculus, 96 h), 3 µM corresponded to half-maximal inhibition (IC50).
For `CC[C@H](C)[C@H](NC(=O)[C@@H](N)Cc1ccccc1)C(=O)NCC(=O)N[C@@H](Cc1ccccc1)C(=O)N1CCC[C@H]1C(=O)NCCCNc1cccc2c1C(=O)c1ccccc1C2=O.O=C(O)C(F)(F)F` [Example 75, 1-[3-(L-Phenylalanyl-L-isoleucyl-glycyl-L-phenylalanyl-L-prolylamino)-propylamino]anthraquinone trifluoroacetate], the melting point is 132 to 136 °C. The IC50 in series [1] (setting [2]) was found to be 20 µM.
For the compound `CCC[C@H](NC(=O)[C@H](C)N)C(=O)N[C@@H](CCC)C(=O)NCC(=O)N[C@@H](CC(C)C)C(=O)N1CCC[C@H]1C(=O)NCCCNc1cccc2c1C(=O)c1ccccc1C2=O` [Example 46, 1-3-(L-Alanyl-L-norvalyl-L-norvalyl-glycyl-L-leucyl-L-prolylamino)-propylamino]anthraquinone trifluoroacetate] (H-A[Nva][Nva]GLP-{NH(CH2)3NH(1-anthraquinonyl)}), the IC50 in series [1] (setting [3]) is 8 µM.
For the compound `O=C(O)C(F)(F)F.O=C1c2ccccc2C(=O)c2c(NCCCNC(=O)[C@H]3CCCN3)cccc21` [Example 9, 1-[3-(D-Prolylamino)propylamino]anthraquinone trifluoroacetate], the melting point came out at 177 °C. The IC50 in series [1] (Mus musculus, 96 h) was determined as 3.5 µM.
`CC[C@H](C)[C@H](NC(=O)[C@H](Cc1ccccc1)NC(=O)[C@@H](N)CC(C)C)C(=O)NCC(=O)N[C@@H](Cc1ccccc1)C(=O)N1CCC[C@H]1C(=O)NCCCNc1cccc2c1C(=O)c1ccccc1C2=O.O=C(O)C(F)(F)F` [Example 76, 1-[3-(L-Leucyl-L-phenylalanyl-L-isoleucyl-glycyl-L-phenylalanyl-L-prolylamino)propylamino]anthraquinone trifluoroacetate] returned a melting point of 166 to 178 °C. Moreover, the IC50 in series [1] (setting [2]) was found to be 21 µM.
In turn, `CC(C)C[C@H](NC(=O)[C@@H](N)Cc1ccccc1)C(=O)NCC(=O)N1CCC[C@@H]1C(=O)NCCCNc1cccc2c1C(=O)c1ccccc1C2=O.O=C(O)C(F)(F)F` showed a melting point of 170 °C.
Still for that read-out and setting: the figure for `CC(C)C[C@H](NC(=O)CN)C(=O)N[C@@H](C)C(=O)N[C@@H](CC(C)C)C(=O)N1CCC[C@H]1C(=O)NCCCNc1cccc2c1C(=O)c1ccccc1C2=O.O=C(O)C(F)(F)F` (H-GLALP-{NH(CH2)3NH(1-anthraquinonyl)}) is 192 to 194 °C.
In turn, `N[C@@H](Cc1ccccc1)C(=O)N1CCC[C@@H]1C(=O)NCCCNc1cccc2c1C(=O)c1ccccc1C2=O.O=C(O)C(F)(F)F` came in with a melting point of 118 to 120 °C.
On the same count and under the same terms, the figure for `CC(C)C[C@H](NC(=O)[C@H](C)NC(=O)[C@@H](N)CC(C)C)C(=O)N1CCC[C@H]1C(=O)NCCCNc1cccc2c1C(=O)c1ccccc1C2=O.O=C(O)C(F)(F)F` (H-LALP-{NH(CH2)3NH(1-anthraquinonyl)}) is 178 to 180 °C.
In the case of `CC[C@H](C)[C@H](NC(=O)[C@H](Cc1ccccc1)NC(=O)[C@H](CC(C)C)NC(=O)[C@@H](C)N)C(=O)NCC(=O)N[C@@H](Cc1ccccc1)C(=O)N1CCC[C@H]1C(=O)NCCCNc1cccc2c1C(=O)c1ccccc1C2=O.O=C(O)C(F)(F)F` [Example 77, 1-[3-(D-Alanyl-L-Leucyl-L-Phenylalanyl-L-isoleucyl-glycyl-L-phenylalanyl-L-prolylamino)propylamino]anthraquinone trifluoroacetate], the melting point is 142 to 148 °C. Also, the IC50 in series [1] (setting [2]) turned out to be 24 µM.
Compound `CC(C)C[C@H](NC(=O)[C@@H](N)Cc1ccccc1)C(=O)NCC(=O)N1CCC[C@H]1C(=O)NCCCNc1cccc2c1C(=O)c1ccccc1C2=O.O=C(O)C(F)(F)F` registered a melting point of 164 to 168 °C.
In turn, `CCC[C@H](NC(=O)CNC(=O)[C@@H](N)CC(C)C)C(=O)N1CCC[C@H]1C(=O)NCCCNc1cccc2c1C(=O)c1ccccc1C2=O.O=C(O)C(F)(F)F` (H-LG[Nva]P-{NH(CH2)3NH(1-anthraquinonyl)}) returned a melting point of 172 to 176 °C.
The same measure, in the same setting: the figure for `CC(C)C[C@H](NC(=O)CNC(=O)[C@H](C)NC(=O)[C@@H](C)N)C(=O)N[C@@H](C)C(=O)N[C@@H](CC(C)C)C(=O)N1CCC[C@H]1C(=O)NCCCNc1cccc2c1C(=O)c1ccccc1C2=O.O=C(O)C(F)(F)F` is 192 °C.
With `CC(C)C[C@H](N)C(=O)N1CCC[C@@H]1C(=O)NCCCNc1cccc2c1C(=O)c1ccccc1C2=O` [Example 10, 1-[3-(L-Leucyl-D-prolylamino)propylamino]anthraquinone trifluoroacetate], in series [1] (Mus musculus, 96 h), the IC50 was 7 µM.
`CCC[C@H](NC(=O)[C@H](Cc1ccc(O)cc1)NC(=O)[C@H](C)NC(=O)[C@@H](C)N)C(=O)NCC(=O)N[C@@H](CC(C)C)C(=O)N1CCC[C@H]1C(=O)NCCCNc1cccc2c1C(=O)c1ccccc1C2=O.O=C(O)C(F)(F)F` showed a melting point of 190 °C.
As to `NCC(=O)N1CCC[C@H]1C(=O)NCCCNc1cccc2c1C(=O)c1ccccc1C2=O.O=C(O)C(F)(F)F`, the melting point lay in the range of 160 to 166 °C.
Turning to `CC(C)C[C@H](N)C(=O)NCC(=O)N1CCC[C@@H]1C(=O)NCCCNc1cccc2c1C(=O)c1ccccc1C2=O.O=C(O)C(F)(F)F`, the melting point is 174 to 178 °C.
As to `CCC[C@H](NC(=O)[C@H](C)N)C(=O)NCC(=O)N[C@@H](CC(C)C)C(=O)N1CCC[C@H]1C(=O)NCCCNc1cccc2c1C(=O)c1ccccc1C2=O.O=C(O)C(F)(F)F` (H-A[Nva]GLP-{NH(CH2)3NH(1-anthraquinonyl)}), the melting point is 198 °C.
Same read-out and setting: the figure for `CCCC[C@H](NC(=O)[C@H](C)NC(=O)[C@H](C)N)C(=O)NCC(=O)N[C@@H](CC(C)C)C(=O)N1CCC[C@H]1C(=O)NCCCNc1cccc2c1C(=O)c1ccccc1C2=O.O=C(O)C(F)(F)F` (H-AA[Nle]GLP-{NH(CH2)3NH(1-anthraquinonyl)}) is 176 °C; for `CCCC[C@H](NC(=O)[C@H](C)NC(=O)[C@H](C)NC(=O)[C@@H](C)N)C(=O)NCC(=O)N[C@@H](CC(C)C)C(=O)N1CCC[C@H]1C(=O)NCCCNc1cccc2c1C(=O)c1ccccc1C2=O.O=C(O)C(F)(F)F` it is 192 °C.
Same read-out and setting: the figure for `CC(C)C[C@H](NC(=O)[C@@H](N)Cc1ccccc1)C(=O)N1CCC[C@H]1C(=O)NCCCNc1cccc2c1C(=O)c1ccccc1C2=O.O=C(O)C(F)(F)F` is 184 to 188 °C; for `CC(C)C[C@H](NC(=O)[C@H](C)N)C(=O)NCC(=O)N[C@@H](CC(C)C)C(=O)N1CCC[C@@H]1C(=O)NCCCNc1cccc2c1C(=O)c1ccccc1C2=O.O=C(O)C(F)(F)F` it is 168 °C; for `CC(C)C[C@H](NC(=O)CNC(=O)[C@H](C)N)C(=O)N[C@@H](Cc1ccccc1)C(=O)N[C@@H](CC(C)C)C(=O)N1CCC[C@H]1C(=O)NCCCNc1cccc2c1C(=O)c1ccccc1C2=O.O=C(O)C(F)(F)F` (H-AGLFLP-{NH(CH2)3NH(1-anthraquinonyl)}) it is 186 °C.
